Our source for the relative viability values is the supplement of paper PMC10307832.

Test in all cases: relative viability (nuclei count vs DMSO), 5 days (fraction); higher = more cells survive
Compound in test [1]: Cc1ccc(Nc2nccc(N(C)c3ccc4c(C)n(C)nc4c3)n2)cc1S(N)(=O)=O [Pazopanib] + CC(C)C[C@H](NC(=O)[C@H](Cc1ccccc1)NC(=O)c1cnccn1)B(O)O [Bortezomib] (partner 0.002 µM)
A digest of the protocol:
(§1)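 Relative viability was taken as the ratio of nuclei in treated wells to nuclei in vehicle wells. Lung cancer cell lines in 1536-well plates received compounds by pin tool one day after seeding, either one drug alone or a fixed anchor-drug dose plus five library-drug doses (not always all listed) in √10 steps. Nuclei were counted on 4× images after 5 days of treatment, and values are medians of duplicate plates.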

Compound in test [2]: Cc1ccc(C(=O)Nc2ccc(CN3CCN(C)CC3)c(C(F)(F)F)c2)cc1C#Cc1cnc2cccnn12 [Ponatinib] + COc1cccc2cc(-c3nc([C@H]4CC[C@H](C(=O)O)CC4)n4ncnc(N)c34)[nH]c12 [OSI-027] (partner 0.5 µM)
A digest of the protocol:
as §1

Compound in test [3]: Cc1ccc(Nc2nccc(N(C)c3ccc4c(C)n(C)nc4c3)n2)cc1S(N)(=O)=O [Pazopanib] + Cc1cc(Nc2cc(N3CCN(C)CC3)nc(Sc3ccc(NC(=O)C4CC4)cc3)n2)n[nH]1 [Tozasertib] (partner 0.1 µM)
In outline: as §1

Compound in test [4]: Cc1ccc(C(=O)Nc2ccc(CN3CCN(C)CC3)c(C(F)(F)F)c2)cc1C#Cc1cnc2cccnn12 [Ponatinib] + CC1(C)CCC(c2ccc(Cl)cc2)=C(CN2CCN(c3ccc(C(=O)NS(=O)(=O)c4ccc(N[C@H](CCN5CCOCC5)CSc5ccccc5)c(S(=O)(=O)C(F)(F)F)c4)cc3)CC2)C1 [Navitoclax] (partner 0.5 µM)
In outline:
as §1

As for UMC-11, the relative viability is 0.668 in test [1] (first compound 0.01 µM); 0.988 in test [1] (first compound 0.03162 µM); 0.781 in test [1] (first compound 0.1 µM); 0.662 in test [1] (first compound 0.3162 µM); 0.976 in test [1] (first compound 1 µM); 0.47 in test [2] (first compound 0.002 µM). Also, the relative viability in test [2] (first compound 0.006325 µM) was found to be 0.49; in test [2] (first compound 0.06325 µM) it was 0.555; in test [2] (first compound 0.2 µM), 0.525; in test [3] (first compound 0.01 µM), 0.196; in test [3] (first compound 0.03162 µM), 0.19; in test [3] (first compound 0.1 µM), 0.208. Further, the relative viability is 0.206 in test [3] (first compound 0.3162 µM); 0.211 in test [3] (first compound 1 µM); 0.311 in test [4] (first compound 0.002 µM); 0.354 in test [4] (first compound 0.006325 µM); 0.38 in test [4] (first compound 0.06325 µM); 0.345 in test [4] (first compound 0.2 µM).
